# In patent publication US20100267637A1, “TREATMENT OF MELANOMA WITH ALPHA THYMOSIN PEPTIDES IN COMBINATION WITH A KINASE INHIBITOR” (SciClone Pharmaceuticals, Inc., priority 2007, published 2010):
# Key:
# [1] = Treatment toxicity: body weight and drug-induced animal deaths in B16 melanoma-bearing mice; assay type: in vivo, C57BL/6 mice
# Experimental: (§1) The toxic effects of the dosing regimens were also monitored. […] Meanwhile 9H10 was given in two groups via i.p. on Day 3, 6 and 9. […] Tumor volume and body weight were measured every three days, and tumor weights were measured on Day 16 at the end of the study.
# (§2) On Day 3, the animals were randomly assigned into nine different weight-matched and tumor-size-matched groups. Dosing was started on Day 3 using the regimen according to Table 2.
# (§3) From Day 1 to Day 15, mortality and moribundity were checked twice daily, the body weights were recorded once every 3 days, and tumors were measured using a caliper once every 3 days. At the end of the study (Day 16), the animals were euthanized by CO2 asphyxiation, and the tumors were excised and weighed.
# Toxicity of all treatment regimens was evaluated with the body weights of the study animals along with the drug-induced animal deaths. The inhibition of body weight was calculated using Excel according to the equation below:
# PIBW(%)=100×(BW vehicle−BW drug treated)/BW vehicle
# (§4) Inter-group comparison was performed in terms of tumor volume, tumor weight and body weight, using a student's t test. P values of less than 0.05 were considered to be statistically significant.
# [2] = test system: murine B16 melanoma cells; assay: Anti-tumor effect: tumor weight at necropsy (Day 16) in mice bearing subcutaneous B16 melanoma; assay type: in vivo, C57BL/6 mice; conditions: for Tumor Weight (g) (Mean ± SD): group mean
# Experimental: as §1
# On the day of tumor implantation, approximately 1×10^6 cells in 0.1 mL were subcutaneously injected on the right axillary area of each mouse. The day of tumor implantation was defined as Day 0.
# as §2, §3
# The anti-tumor effect of the test article was further evaluated with tumor weight (TW) measured on day of necropsy (Day 16). The PI of TW was calculated using the equation below:
# PITW(%)=100×(TW vehicle−TW drug treated)/TW vehicle
# as §4
# [3] = Day 0 (tumor implantation, before dosing)
compound,measurement,setting,value
"CN(C)/N=N/c1[nH]cnc1C(N)=O [DTIC, Dacarbazine]",Body Weight (g) (Mean ± SD),[1]; [3],20.86 ± 1.294 g
same,Body weights on Day 0,"[1]; Day 0, animal F1",21.50 g
same,Body weights on Day 0,"[1]; Day 0, animal F2",19.90 g
same,Body weights on Day 0,"[1]; Day 0, animal F3",19.70 g
same,Body weights on Day 0,"[1]; Day 0, animal F4",19.30 g
same,Body weights on Day 0,"[1]; Day 0, animal F5",22.10 g
same,Body weights on Day 0,"[1]; Day 0, animal M1",22.40 g
same,Body weights on Day 0,"[1]; Day 0, animal M2",21.80 g
same,Body weights on Day 0,"[1]; Day 0, animal M3",21.00 g
same,Body weights on Day 0,"[1]; Day 0, animal M4",18.90 g
same,Body weights on Day 0,"[1]; Day 0, animal M5",22.00 g
same,Percent inhibition of body weight vs vehicle (PIBW),[1]; Day 0,−0.1440%
same,Body Weight (g) (Mean ± SD),[1]; Day 3 (start of dosing),21.02 ± 0.993 g
same,Body weights on Day 3,"[1]; Day 3, animal F1",21.60 g
same,Body weights on Day 3,"[1]; Day 3, animal F2",19.60 g
same,Body weights on Day 3,"[1]; Day 3, animal F3",20.50 g
same,Body weights on Day 3,"[1]; Day 3, animal F4",20.30 g
same,Body weights on Day 3,"[1]; Day 3, animal F5",21.30 g
same,Body weights on Day 3,"[1]; Day 3, animal M1",22.20 g
same,Body weights on Day 3,"[1]; Day 3, animal M2",22.00 g
same,Body weights on Day 3,"[1]; Day 3, animal M3",21.20 g
same,Body weights on Day 3,"[1]; Day 3, animal M4",19.50 g
same,Body weights on Day 3,"[1]; Day 3, animal M5",22.00 g
same,Percent inhibition of body weight vs vehicle (PIBW),[1]; Day 3,−0.6705%
same,Body Weight (g) (Mean ± SD),[1]; Day 6,20.41 ± 0.960 g
same,Body weights on Day 6,"[1]; Day 6, animal F1",20.40 g
same,Body weights on Day 6,"[1]; Day 6, animal F2",18.40 g
same,Body weights on Day 6,"[1]; Day 6, animal F3",19.70 g
same,Body weights on Day 6,"[1]; Day 6, animal F4",20.10 g
same,Body weights on Day 6,"[1]; Day 6, animal F5",20.50 g
same,Body weights on Day 6,"[1]; Day 6, animal M1",20.90 g
same,Body weights on Day 6,"[1]; Day 6, animal M2",21.80 g
same,Body weights on Day 6,"[1]; Day 6, animal M3",20.20 g
same,Body weights on Day 6,"[1]; Day 6, animal M4",20.50 g
same,Body weights on Day 6,"[1]; Day 6, animal M5",21.60 g
same,Percent inhibition of body weight vs vehicle (PIBW),[1]; Day 6,−0.0490%
same,Body Weight (g) (Mean ± SD),[1]; Day 9,20.99 ± 1.049 g
same,Body weights on Day 9,"[1]; Day 9, animal F1",21.70 g
same,Body weights on Day 9,"[1]; Day 9, animal F2",19.50 g
same,Body weights on Day 9,"[1]; Day 9, animal F3",21.10 g
same,Body weights on Day 9,"[1]; Day 9, animal F4",19.50 g
same,Body weights on Day 9,"[1]; Day 9, animal F5",21.70 g
same,Body weights on Day 9,"[1]; Day 9, animal M1",21.30 g
same,Body weights on Day 9,"[1]; Day 9, animal M2",22.10 g
same,Body weights on Day 9,"[1]; Day 9, animal M3",20.60 g
same,Body weights on Day 9,"[1]; Day 9, animal M4",20.00 g
same,Body weights on Day 9,"[1]; Day 9, animal M5",22.40 g
same,Percent inhibition of body weight vs vehicle (PIBW),[1]; Day 9,−2.8417%
same,Body Weight (g) (Mean ± SD),[1]; Day 12,22.09 ± 1.079 g
same,Body weights on Day 12,"[1]; Day 12, animal F1",22.50 g
same,Body weights on Day 12,"[1]; Day 12, animal F2",20.10 g
same,Body weights on Day 12,"[1]; Day 12, animal F3",21.40 g
same,Body weights on Day 12,"[1]; Day 12, animal F4",21.70 g
same,Body weights on Day 12,"[1]; Day 12, animal F5",22.20 g
same,Body weights on Day 12,"[1]; Day 12, animal M1",22.80 g
same,Body weights on Day 12,"[1]; Day 12, animal M2",23.40 g
same,Body weights on Day 12,"[1]; Day 12, animal M3",22.20 g
same,Body weights on Day 12,"[1]; Day 12, animal M4",21.00 g
same,Body weights on Day 12,"[1]; Day 12, animal M5",23.60 g
same,Percent inhibition of body weight vs vehicle (PIBW),[1]; Day 12,−0.9137%
same,Body Weight (g) (Mean ± SD),[1]; Day 15,22.22 ± 1.963 g
same,Body weights on Day 15,"[1]; Day 15, animal F1",21.30 g
same,Body weights on Day 15,"[1]; Day 15, animal F2",18.70 g
same,Body weights on Day 15,"[1]; Day 15, animal F3",20.20 g
same,Body weights on Day 15,"[1]; Day 15, animal F4",22.20 g
same,Body weights on Day 15,"[1]; Day 15, animal F5",22.20 g
same,Body weights on Day 15,"[1]; Day 15, animal M1",24.50 g
same,Body weights on Day 15,"[1]; Day 15, animal M2",24.20 g
same,Body weights on Day 15,"[1]; Day 15, animal M3",22.70 g
same,Body weights on Day 15,"[1]; Day 15, animal M4",21.30 g
same,Body weights on Day 15,"[1]; Day 15, animal M5",24.90 g
same,Percent inhibition of body weight vs vehicle (PIBW),[1]; Day 15,−0.3613%
same,body weight effect in words (loss / difference vs vehicle group),[1]; throughout the course of the study,no statistical differences in body weights
same,Tumor weight on Day 16,[2]; animal F1,1.40 g
same,Tumor weight on Day 16,[2]; animal F2,0.43 g
same,Tumor weight on Day 16,[2]; animal F3,0.47 g
same,Tumor weight on Day 16,[2]; animal F4,0.68 g
same,Tumor weight on Day 16,[2]; animal F5,0.56 g
same,Tumor weight on Day 16,[2]; animal M1,1.80 g
same,Tumor weight on Day 16,[2]; animal M2,1.80 g
same,Tumor weight on Day 16,[2]; animal M3,0.83 g
same,Tumor weight on Day 16,[2]; animal M4,2.30 g
same,Tumor weight on Day 16,[2]; animal M5,1.90 g
same,Tumor Weight (g) (Mean ± SD),[2],1.22 ± 0.699 g
same,percent inhibition of tumor weight vs vehicle,[2],28.41%
CNC(=O)c1cc(Oc2ccc(NC(=O)Nc3ccc(Cl)c(C(F)(F)F)c3)cc2)ccn1 [Sorafenib],Body Weight (g) (Mean ± SD),[1]; [3],21.02 ± 0.834 g
same,Percent inhibition of body weight vs vehicle (PIBW),[1]; Day 0,−0.9121%
same,Percent inhibition of body weight vs vehicle (PIBW),[1]; Day 3,0.0000%
same,Body Weight (g) (Mean ± SD),[1]; Day 6,20.74 ± 1.023 g
same,Percent inhibition of body weight vs vehicle (PIBW),[1]; Day 6,−1.6667%
same,Body Weight (g) (Mean ± SD),[1]; Day 9,19.75 ± 1.307 g
same,Body weights on Day 9,"[1]; Day 9, animal F1",18.60 g
same,Body weights on Day 9,"[1]; Day 9, animal F2",18.40 g
same,Body weights on Day 9,"[1]; Day 9, animal F3",18.40 g
same,Body weights on Day 9,"[1]; Day 9, animal F4",18.60 g
same,Body weights on Day 9,"[1]; Day 9, animal F5",19.80 g
same,Body weights on Day 9,"[1]; Day 9, animal M1",20.80 g
same,Body weights on Day 9,"[1]; Day 9, animal M2",22.10 g
same,Body weights on Day 9,"[1]; Day 9, animal M3",20.40 g
same,Body weights on Day 9,"[1]; Day 9, animal M4",21.10 g
same,Body weights on Day 9,"[1]; Day 9, animal M5",19.30 g
same,Percent inhibition of body weight vs vehicle (PIBW),[1]; Day 9,3.2337%
same,Body Weight (g) (Mean ± SD),[1]; Day 12,20.09 ± 1.534 g
same,Body weights on Day 12,"[1]; Day 12, animal F1",19.00 g
same,Body weights on Day 12,"[1]; Day 12, animal F2",17.20 g
same,Body weights on Day 12,"[1]; Day 12, animal F3",20.80 g
same,Body weights on Day 12,"[1]; Day 12, animal F4",18.30 g
same,Body weights on Day 12,"[1]; Day 12, animal F5",20.30 g
same,Body weights on Day 12,"[1]; Day 12, animal M1",22.10 g
same,Body weights on Day 12,"[1]; Day 12, animal M2",21.40 g
same,Body weights on Day 12,"[1]; Day 12, animal M3",20.40 g
same,Body weights on Day 12,"[1]; Day 12, animal M4",21.50 g
same,Body weights on Day 12,"[1]; Day 12, animal M5",19.90 g
same,Percent inhibition of body weight vs vehicle (PIBW),[1]; Day 12,8.2229%
same,Percent inhibition of body weight vs vehicle (PIBW),"[1]; Day 12, listed as Sorafenib alone",8.22%
same,Body Weight (g) (Mean ± SD),[1]; Day 15,21.41 ± 1.919 g
same,Body weights on Day 15,"[1]; Day 15, animal F1",20.70 g
same,Body weights on Day 15,"[1]; Day 15, animal F2",17.50 g
same,Body weights on Day 15,"[1]; Day 15, animal F3",21.10 g
same,Body weights on Day 15,"[1]; Day 15, animal F4",19.90 g
same,Body weights on Day 15,"[1]; Day 15, animal F5",21.50 g
same,Body weights on Day 15,"[1]; Day 15, animal M1",23.90 g
same,Body weights on Day 15,"[1]; Day 15, animal M2",23.80 g
same,Body weights on Day 15,"[1]; Day 15, animal M3",22.20 g
same,Body weights on Day 15,"[1]; Day 15, animal M4",22.80 g
same,Body weights on Day 15,"[1]; Day 15, animal M5",20.70 g
same,Percent inhibition of body weight vs vehicle (PIBW),[1]; Day 15,3.2972%
same,Tumor weight on Day 16,[2]; animal F1,0.23 g
same,Tumor weight on Day 16,[2]; animal F2,0.16 g
same,Tumor weight on Day 16,[2]; animal F3,0.32 g
same,Tumor weight on Day 16,[2]; animal F4,0.30 g
same,Tumor weight on Day 16,[2]; animal F5,0.16 g
same,Tumor weight on Day 16,[2]; animal M1,0.10 g
same,Tumor weight on Day 16,[2]; animal M2,0.38 g
same,Tumor weight on Day 16,[2]; animal M3,0.20 g
same,Tumor weight on Day 16,[2]; animal M4,0.25 g
same,Tumor weight on Day 16,[2]; animal M5,0.32 g
same,Tumor Weight (g) (Mean ± SD),[2],0.24 ± 0.088 g
same,percent inhibition of tumor weight vs vehicle,[2],85.76%
